Source: patent US6531610B1 (Abbott Laboratories, priority 1989, dated 2003)
Structures can show the parent of a compound that is named as a salt. Where two headings read alike, the source gives them in different places.

Experiments:
HIV-1 protease = HIV-1 protease (Human immunodeficiency virus type 1 group M subtype B, UniProt P04585); assay: Fluorogenic assay for screening inhibitors of HIV protease; assay type: biochemical; conditions: Inhibitor Concentration 0.5 nanomolar, fluorogenic substrate, pH 4.5, read-out: Percent Inhibition
Protocol: The inhibitory potency of the compounds of the invention can be determined by the following method.
A compound of the invention is dissolved in DMSO and a small aliquot further diluted with DMSO to 100 times the final concentration desired for testing. The reaction is carried out in a 6×50 mm tube in a total volume of 300 microliters. The final concentrations of the components in the reaction buffer are: 125 mM sodium acetate, 1 M sodium chloride, 5 mM dithiothreitol, 0.5 mg/ml bovine serum albumin, 1.3 μM fluorogenic substrate, 2% (v/v) dimethylsulfoxide, pH 4.5. After addition of inhibitor, the reaction mixture is placed in the fluorometer cell holder and incubated at […] for several minutes. The reaction is initiated by the addition of a small aliquot of cold HIV protease. The fluorescence intensity (excitation 340 nm, emission 490 nm) is recorded as a function of time. The reaction rate is determined for the first six to eight minutes. The observed rate is directly proportional to the moles of substrate cleaved per unit time. The percent inhibition is 100×(1-(rate in presence of inhibitor)/(rate in absence of inhibitor)).
Fluorogenic substrate: Dabcyl-[…]EDANS wherein DABCYL=4-(4-dimethylamino-phenyl)azobenzoic acid and EDANS=5-((2-aminoethyl)amino)-naphthalene-1-sulfonic acid.

HIV-13B in MT4 cells = assay: Antiviral activity: inhibition of the cytopathic effect of HIV in MT4 cells; assay type: cell-based, HIV-1
in vitro = assay type: cell-based; conditions: human
From the text: The anti-HIV activity of the compounds of the invention can be determined in MT4 cells according to the procedure of Kempf, et. al. (Antimicrob. Agents Chemother. 1991, 35, 2209).

[1] = Human immunodeficiency virus 1, MT4, read-out: IC50
[2] = concentration at which 50% of the cells remain viable, MT4 cells, read-out: LC50 (the source's name)
[3] = Human immunodeficiency virus 1, MT4

SMILES	inhibition at 0.0005 µM (HIV-1 protease)	IC50 (HIV-13B in MT4 cells; [1])	CC50 (in vitro)	CC50 (in vitro; [2])	IC50 (HIV-13B in MT4 cells; [3])	IC50 (HIV-13B in MT4 cells; concentration giving 50% inhibition of the cytopathic effect of HIV, HIV-13B in MT4 cells, read-out: IC50)
CC(C)[C@H](NC(=O)N(C)Cc1csc(N2CCCC2)n1)C(=O)N[C@@H](Cc1ccccc1)C[C@H](O)[C@H](Cc1ccccc1)NC(=O)OCc1cncs1 [Example 46, (2S,3S,5S)-5-(N-(N-((N-Methyl-N-((2-(1-pyrrolidinyl)-4-thiazolyl)methyl)amino)carbonyl)valinyl)amino)-2-(N-((5-thiazolyl)methoxycarbonyl)amino)-1,6-diphenyl-3-hydroxyhexane]	46%	100 to 170 nM				
CC(C)[C@H](NC(=O)N(C)Cc1csc(C2CCCC2)n1)C(=O)N[C@@H](Cc1ccccc1)C[C@H](O)[C@H](Cc1ccccc1)NC(=O)OCc1cncs1 [Example 58, (2S,3S,5S)-5-(N-(N-((N-Methyl-N-((2-cyclopentyl-4-thiazolyl)methyl)amino)carbonyl)valinyl)amino)-2-(N-((5-thiazolyl)methoxycarbonyl)amino)-1,6-diphenyl-3-hydroxyhexane]	49%	30 to 46 nM	18000 nM			
CCN(Cc1csc(C2CCCC2)n1)C(=O)N[C@@H](C)C(=O)N[C@@H](Cc1ccccc1)C[C@H](O)[C@H](Cc1ccccc1)NC(=O)OCc1cncs1 [Example 60]	44%			17000 nM	340 to 510 nM	
CC(C)Cc1nc(CN(C)C(=O)N[C@H](C(=O)N[C@@H](Cc2ccccc2)C[C@H](O)[C@H](Cc2ccccc2)NC(=O)OCc2cncs2)C(C)C)cs1 [Example 59, (2S,3S,5S)-5-(N-(N-((N-Methyl-N-((2-isobutyl-4-thiazolyl)methyl)amino)carbonyl)valinyl)amino)-2-(N-((5-thiazolyl)methoxycarbonyl)amino)-1,6-diphenyl-3-hydroxyhexane]	39%	110 to 130 nM	18000 nM			
CC(C)c1nc(CN(NC(=O)OC(C)(C)C)C(=O)N[C@H](C(=O)N[C@@H](Cc2ccccc2)C[C@H](O)[C@H](Cc2ccccc2)NC(=O)OCc2cncs2)C(C)C)cs1 [Example 62, (2S,3S,5S)-5-(N-(N-((N-(tert-Butyloxycarbonylamino)-N-((2-isopropyl-4-thiazolyl)methyl)amino)carbonyl)valinyl)amino)-2-(N-((5-thiazolyl)methoxycarbonyl)amino)-1,6-diphenyl-3-hydroxyhexane]	54%	690 to 1000 nM	17000 nM			
CC(C)c1nc(COC(=O)N[C@H](C(=O)N[C@@H](Cc2ccccc2)[C@@H](O)C[C@@H](Cc2cncs2)NC(=O)OCc2cncs2)C(C)C)cs1 [Example 65, (2S,3S,5S)-2-(N-(N-((2-Isopropyl-4-thiazolyl)methoxycarbonyl)valinyl)amino)-1-phenyl-5-(N-((5-thiazolyl)methoxycarbonyl)amino)-6-(5-thiazolyl)-3-hydroxyhexane]	70%	120 to 200 nM	> 100000 nM			
CC(C)c1nc(CN(N)C(=O)N[C@H](C(=O)N[C@@H](Cc2ccccc2)C[C@H](O)[C@H](Cc2ccccc2)NC(=O)OCc2cncs2)C(C)C)cs1 [Example 63, (2S,3S,5S)-5-(N-(N-((N-(Amino)-N-((2-isopropyl-4-thiazolyl)methyl)amino)carbonyl)valinyl)amino)-2-(N-((5-thiazolyl)methoxycarbonyl)amino)-1,6-diphenyl-3-hydroxyhexane Hydrochloride]	61%			45000 nM	130 to 180 nM	
CC(C)c1nc(CCOC(=O)N[C@H](C(=O)N[C@@H](Cc2ccccc2)[C@@H](O)C[C@H](Cc2ccccc2)NC(=O)OCc2cncs2)C(C)C)cs1 [Example 48, (2S,3S,5S)-2-(N-(N-((2-(2-Isopropyl-4-thiazolyl)ethoxy)carbonyl)valinyl)amino)-5-(N-((5-thiazolyl)methoxycarbonyl)amino)-1,6-diphenyl-3-hydroxyhexane]		90 to 110 nM	> 100000 nM			
CC(C)[C@H](NC(=O)OCc1csc(N(C)C)n1)C(=O)N[C@@H](Cc1ccccc1)C[C@H](O)[C@H](Cc1ccccc1)NC(=O)OCc1cncs1 [Example 9, (2S,3S,5S)-5-(N-(N-((2-(N,N-Dimethylamino)-4-thiazolyl)methoxycarbonyl)valinyl)amino)-2-(N-((5-thiazolyl)methoxycarbonyl)amino)-1,6-diphenyl-3-hydroxyhexane]		80 to 100 nM	62000 nM			
CC(C)[C@H](NC(=O)OCc1csc(N2CCCC2)n1)C(=O)N[C@@H](Cc1ccccc1)C[C@H](O)[C@H](Cc1ccccc1)NC(=O)OCc1cncs1 [Example 13, (2S,3S,5S)-5-(N-(N-((2-(1-Pyrrolidinyl)-4-thiazolyl)methoxycarbonyl)valinyl)amino)-2-(N-((5-thiazolyl)methoxycarbonyl)amino)-1,6-diphenyl-3-hydroxyhexane]	46%	56 to 88 nM	56000 nM			
CC(C)c1nc(CN(C)C(=O)N[C@H](C(=O)N[C@H](Cc2cncs2)C[C@H](O)[C@H](Cc2ccccc2)NC(=O)OCc2cncs2)C(C)C)cs1 [Example 8, (2S,3S,5S)-5-(N-(N-((N-Methyl-N-((2-isopropyl-4-thiazolyl)methyl)amino)carbonyl)valinyl)amino)-1-phenyl-2-(N-((5-thiazolyl)methoxycarbonyl)amino)-6-(5-thiazolyl)-3-hydroxyhexane]		57 to 95 nM	97000 nM			
CC(C)c1nc(CN(C)C(=O)N[C@H](C(=O)N[C@@H](Cc2ccccc2)C[C@H](O)[C@H](Cc2ccccc2)NC(=O)OCc2cnc(C(C)C)s2)C(C)C)cs1 [Example 45, (2S,3S,5S)-5-(N-(N-((N-Methyl-N-((2-isopropyl-4-thiazolyl)methyl)amino)carbonyl)valinyl)amino)-2-(N-(((2-isopropyl)-5-thiazolyl)methoxycarbonyl)amino)-1,6-diphenyl-3-hydroxyhexane]	50%	36 to 40 nM				
CC(C)c1nc(CN(C)C(=O)N[C@H](C(=O)N[C@@H](Cc2ccccc2)C[C@H](O)[C@H](Cc2ccccc2)NC(=O)OCc2ccno2)C(C)C)cs1 [Example 26, (2S,3S,5S)-5-(N-(N-((N-Methyl-N-((2-isopropyl-4-thiazolyl)methyl)amino)carbonyl)valinyl)amino)-2-(N-((5-isoxazolyl)methoxycarbonyl)amino)-1,6-diphenyl-3-hydroxyhexane]		7 to 11 nM				
CC(C)c1nc(CN(C)C(=O)N[C@H](C(=O)N[C@@H](Cc2ccccc2)C[C@H](O)[C@H](Cc2ccccc2)NC(=O)OCc2cncs2)C(C)C)co1 [Example 18, (2S,3S,5S)-5-(N-(N-((N-Methyl-N-((2-isopropyl-4-oxazolyl)methyl)amino)carbonyl)valinyl)amino)-2-(N-((5-thiazolyl)methoxycarbonyl)amino)-1,6-diphenyl-3-hydroxyhexane]		39 to 46 nM				
CC(C)[C@H](NC(=O)N(C)Cc1csc(N2CCCC2)n1)C(=O)N[C@@H](Cc1ccccc1)C[C@H](O)[C@H](Cc1ccccc1)NC(=O)OCc1ccno1 [Example 49, (2S,3S,5S)-5-(N-(N-((N-Methyl-N-((2-(1-pyrrolidinyl)-4-thiazolyl)methyl)amino)carbonyl)valinyl)amino)-2-(N-((5-isoxazolyl)methoxycarbonyl)amino)-1,6-diphenyl-3-hydroxyhexane]		81 to 130 nM	38000 nM			
CC(C)[C@H](NC(=O)N(C)Cc1csc(C2CC2)n1)C(=O)N[C@@H](Cc1ccccc1)C[C@H](O)[C@H](Cc1ccccc1)NC(=O)OCc1cncs1 [Example 51]						45 to 49 nM
CC(C)[C@H](NC(=O)OCc1csc(N2CCCC2)n1)C(=O)N[C@@H](Cc1ccccc1)[C@@H](O)C[C@H](Cc1ccccc1)NC(=O)OCc1cncs1 [Example 14, (2S,3S,5S)-2-(N-(N-((2-(1-Pyrrolidinyl)-4-thiazolyl)-methoxycarbonyl)valinyl)amino)-5-(N-((5-thiazolyl)-methoxycarbonyl)amino)-1,6-diphenyl-3-hydroxyhexane]		140 to 220 nM	> 100000 nM			
CCc1nc(CN(C)C(=O)N[C@H](C(=O)N[C@@H](Cc2ccccc2)C[C@H](O)[C@H](Cc2ccccc2)NC(=O)OCc2cncs2)C(C)C)cs1 [Example 53, (2S,3S,5S)-5-(N-(N-((N-Methyl-N-((2-ethyl-4-thiazolyl)methyl)amino)carbonyl)valinyl)amino)-2-(N-((5-thiazolyl)methoxycarbonyl)amino)-1,6-diphenyl-3-hydroxyhexane]		32 to 73 nM				
CC(C)CN(Cc1csc(C(C)C)n1)C(=O)N[C@@H](C)C(=O)N[C@@H](Cc1ccccc1)C[C@H](O)[C@H](Cc1ccccc1)NC(=O)OCc1cncs1 [Example 55]					140 to 220 nM	
CC(C)c1nc(COC(=O)N[C@H](C(=O)N[C@H](Cc2cncs2)C[C@H](O)[C@H](Cc2ccccc2)NC(=O)OCc2cncs2)C(C)C)cs1 [Example 64, (2S,3S,5S)-5-(N-(N-((2-Isopropyl-4-thiazolyl)methoxycarbonyl)valinyl)amino)-1-phenyl-2-(N-((5-thiazolyl)methoxycarbonyl)amino)-6-(5-thiazolyl)-3-hydroxyhexane]		100 to 130 nM	> 100000 nM			
